According to publication PMC4608554 (Bioorganic & medicinal chemistry, 2015):
“And” between values parts separate entries of the source, which are not always exact repeats. Identical values can stand only once. “Also recorded” adds a separate entry of the source. Like-named read-outs stand apart in the source and are kept apart here.

Tests used:
[1] = tested on: non-iron-overloaded, bile duct-cannulated rats; settings: cited from earlier work
[2] = rat liver, sc 300 µmol/kg, cited from earlier work; for fraction of parent polyether cleaved to 2 (from 5) or 3 (from 6): 2 h
[3] = even when administered b.i.d.; cited from earlier work
[4] = Tissue distribution/metabolism of chelators in rats; format: in vivo, rat (male Sprague-Dawley); settings: for concentration in kidney: rat kidney; for presence in heart: later time points (2-8 h) after 11 sc 300 µmol/kg
[5] = tested on: iron-overloaded Cebus apella monkeys; experiment: Chelator-induced iron clearance; format: in vivo; settings: 75 µmol/kg, same animals po and sc
patients = settings: cited from earlier work
[6] = tested on: iron-overloaded Cebus apella monkeys; settings: po, cited from earlier work
rats [7] = settings: rat, cited from earlier work
[8] = tested on: non-iron-overloaded, bile duct-cannulated rats; experiment: Chelator-induced iron clearance; format: in vivo; settings: po, 300 µmol/kg
male Sprague-Dawley rats = experiment: 10-day toxicity trial of 11 in rats; format: in vivo, rat; settings: 384 µmol/kg/day
[9] = 2:1 complex with Fe(III); cited from earlier work
rats [10] = settings: cited from earlier work
[11] = bile duct-cannulated rats, po, 150 µmol/kg
[12] = rat liver, 0.5 h after 11 sc 300 µmol/kg
[13] = rat liver, 1 h after 11 sc 300 µmol/kg
[14] = rat heart, 0.5 h after 11 sc 300 µmol/kg
[15] = rat heart, 1 h after 11 sc 300 µmol/kg
[16] = rat liver, 8 h after 11 sc 300 µmol/kg
[17] = rat pancreas, 0.5 h after 11 sc 300 µmol/kg
[18] = rat pancreas, 1 h after 11 sc 300 µmol/kg
[19] = rat plasma, 4 h after 11 sc 300 µmol/kg
[20] = rat liver, 8 h after 8 sc 300 µmol/kg
[21] = rat plasma, 8 h after 8 sc 300 µmol/kg

In the case of `COCCOCCOCCOc1cccc(C2=N[C@@](C)(C(=O)O)CS2)c1O` [compound 6, (S)-4,5-dihydro-2-[2-hydroxy-3-(3,6,9-trioxadecyloxy)phenyl]-4-methyl-4-thiazolecarboxylic acid], the ICE [1, 11] is listed as 18.7 ± 2.9%, the iron decorporated [1, 11] is listed as 0.782 ± 0.121 mg/kg and the “quantity of iron excreted” value ([1]; bile duct-cannulated rats, po, 300 µmol/kg) is listed as 0.887 ± 0.367 mg/kg. The “fraction of parent polyether cleaved to 2 (from 5) or 3 (from 6)” value [2] was 2.6% and the renal toxicity [3] was “no renal toxicity”.
In the case of `CCCCOc1ccc(C2=N[C@@H](C(=O)O)CS2)c(O)c1` [(S)-2-(4-butoxy-2-hydroxyphenyl)-4,5-dihydro-4-thiazolecarboxylic acid], the time to deaths ([1]; 4'-butoxy analogue of 2) is given as at most 24 h.
For `C[C@]1(C(=O)O)CSC(c2ccc(OCCCCCC(=O)O)cc2O)=N1` [compound 12, (S)-4,5-dihydro-2-[2-hydroxy-4-(5-carboxypentyloxy)phenyl]-4-methyl-4-thiazolecarboxylic acid], the “presence in cardiac tissue” value ([4]; rat heart, any of the time points after 11 sc 300 µmol/kg) was “not found”, the concentration in kidney ([4]; 0.5 h after 11 sc 300 µmol/kg) was “found” and the concentration in kidney ([4]; 1 h after 11 sc 300 µmol/kg) was “found”. The presence in liver ([4]; rat liver, 2, 4, or 8 h after 11 sc 300 µmol/kg) was “not detected”, the “share of the total drug (parent + metabolites)” value (shortened to “share of the total drug”) [4, 12] was 11% and the “share of the total drug” value [4, 13] was 2%. For the same compound, the presence in pancreas ([4]; rat pancreas, any of the time points after 11 sc 300 µmol/kg) was “not found” and the presence in plasma ([4]; rat plasma, 0.5-8 h after 11 sc 300 µmol/kg) was “None”.
In the case of `C[C@]1(C(=O)O)CSC(c2ccc(OCC(=O)O)cc2O)=N1` [compound 14, (S)-4,5-dihydro-2-[2-hydroxy-4-(carboxymethoxy)phenyl]-4-methyl-4-thiazolecarboxylic acid], the concentration in heart [4, 14] is reported as 17 nmol/g wet weight, the concentration in heart [4, 15] is reported as 23 nmol/g wet weight and the presence in heart ([4]; rat heart) is reported as “not found”. For the same compound, the concentration in kidney ([4]; 0.5 h after 11 sc 300 µmol/kg) was 156 nmol/g wet weight, the concentration in kidney ([4]; 1 h after 11 sc 300 µmol/kg) was 201 nmol/g wet weight and the concentration in kidney ([4]; 2 h after 11 sc 300 µmol/kg) was 161 nmol/g wet weight. For the same compound, the concentration in kidney ([4]; 8 h after 11 sc 300 µmol/kg) was 5 nmol/g wet weight, the “share of the total drug” value [4, 12] was 18% and the “share of the total drug” value [4, 13] was 25%. The presence in liver [4, 16] was “trace amounts”, the concentration in pancreas [4, 17] was “Trace amounts” and the concentration in pancreas [4, 18] was “Trace amounts”. For the same compound, the concentration in pancreas ([4]; rat pancreas, 2 h after 11 sc 300 µmol/kg) was “Trace amounts”, the “share of the total (parent + metabolites)” value [4, 19] was 50% and the “sc ICE vs po ICE in the primates (times higher)” value [5] was 5.3 times.
With `C[C@]1(C(=O)O)CSC(c2ccc(OCCCC(=O)O)cc2O)=N1` [compound 13, (S)-4,5-dihydro-2-[2-hydroxy-4-(3-carboxypropyloxy)phenyl]-4-methyl-4-thiazolecarboxylic acid] the concentration in heart [4, 14] was ~ 46 nmol/g wet weight, the concentration in heart [4, 15] was ~ 46 nmol/g wet weight and the presence in heart ([4]; rat heart) was “not found”. For the same compound, the concentration in kidney ([4]; 0.5 h after 11 sc 300 µmol/kg) was ~ 300 nmol/g wet weight, the concentration in kidney ([4]; 1 h after 11 sc 300 µmol/kg) was ~ 300 nmol/g wet weight and the concentration in kidney ([4]; 8 h after 11 sc 300 µmol/kg) was “not detectable”. The “share of the total drug” value [4, 12] was 71%, the “share of the total drug” value [4, 13] was 73% and the “share of the total drug” value ([4]; rat liver, 2 h after 11 sc 300 µmol/kg) was 66%. For the same compound, the “share of the total drug” value ([4]; rat liver, 4 h after 11 sc 300 µmol/kg) was 70%, the presence in liver [4, 16] was “no 13 remained” and the concentration in pancreas [4, 17] was 19 nmol/g wet weight. For the same compound, the concentration in pancreas [4, 18] was 23 nmol/g wet weight, the “share of the total (parent + metabolites)” value ([4]; rat plasma, 0.5 h after 11 sc 300 µmol/kg) was 62% and the “share of the total (parent + metabolites)” value [4, 19] was 50%. The “share of the total plasma drug concentration” value ([4]; rat plasma, 8 h after 11 sc 300 µmol/kg) was 65% and the “sc ICE vs po ICE in the primates (times higher)” value [5] was 3.4 times.
For `C[C@]1(C(=O)O)CSC(c2ccc(OCCOCCO)cc2O)=N1` [compound 8, (S)-4,5-dihydro-2-[2-hydroxy-4-(5-hydroxy-3-oxapentyloxy)phenyl]-4-methyl-4-thiazolecarboxylic acid], the “share of the drug (parent + metabolite)” value ([4]; rat liver, 0.5 h after 8 sc 300 µmol/kg) was 53%, the presence in liver [4, 20] was “very little” and the “share of total drug concentration” value ([4]; rat plasma, 0.5 h after 7 sc 300 µmol/kg) was 5%. For the same compound, the presence in plasma [4, 21] was “Neither the parent 8 nor the metabolite 9 was found”.
For `COc1ccc(C2=N[C@@](C)(C(=O)O)CS2)c(O)c1` [compound 4, (S)-4,5-dihydro-2-(2-hydroxy-4-methoxyphenyl)-4-methyl-4-thiazolecarboxylic acid], the “fraction of parent demethylated to 2” value ([2]; 2 h post drug) is listed as “about 30%”.
For `C[C@]1(C(=O)O)CSC(c2ccc(O)cc2O)=N1` [compound 2, (S)-2-(2,4-dihydroxyphenyl)-4,5-dihydro-4-methyl-4-thiazolecarboxylic acid], the tolerability in patients (patients; 5, 10, or 15 mg/kg/day once daily (s.i.d) for up to 12 weeks) is given as “well tolerated” and the “renal toxicity in patients (increases in BUN and SCr)” value (patients; b.i.d. 12.5 mg/kg (25 mg/kg/d), three patients after 4-5 weeks) is given as “unacceptable renal toxicity”.
With `C[C@]1(C(=O)O)CSC(c2ccc(OCCOCC(=O)O)cc2O)=N1` [compound 9, (S)-4,5-dihydro-2-[2-hydroxy-4-(4-carboxy-3-oxabutyloxy)phenyl]-4-methyl-4-thiazolecarboxylic acid] the “share of the drug (parent + metabolite)” value ([4]; rat liver, 1 h after 8 sc 300 µmol/kg) was 59%, the presence in liver [4, 20] was “no metabolite 9 remains” and the “share of drug converted to / in the form of metabolite” value ([4]; rat plasma, 0.5 h after 8 sc 300 µmol/kg) was about 60%. The “share of drug in the form of the metabolite” value ([4]; rat plasma, 2 h after 8 sc 300 µmol/kg) was 88%, the presence in plasma [4, 21] was “Neither the parent 8 nor the metabolite 9 was found” and the “presence of carboxylic acid 9 in tissues after 7” value ([4]; rat tissues, 7 sc 300 µmol/kg) was “not detected”.
For `COCCOCCOCCOc1ccc(C2=N[C@@](C)(C(=O)O)CS2)c(O)c1` [compound 5, (S)-4,5-dihydro-2-[2-hydroxy-4-(3,6,9-trioxadecyloxy)phenyl]-4-methyl-4-thiazolecarboxylic acid], the “fraction of parent polyether cleaved to 2 (from 5) or 3 (from 6)” value [2] is given as 2% and the renal toxicity [3] is given as “no renal toxicity”.
For `COCCOCCOc1ccc(C2=N[C@@](C)(C(=O)O)CS2)c(O)c1` [compound 7, (S)-4,5-dihydro-2-[2-hydroxy-4-(3,6-dioxaheptyloxy)phenyl]-4-methyl-4-thiazolecarboxylic acid], the “cleavage of the terminal methyl of 7 to alcohol 8” value ([4]; rat tissues, 7 sc 300 µmol/kg) is given as “did occur”, the “cleavage of 7 at the 4'-(HO) to 2” value ([4]; rats, 7 sc 300 µmol/kg) is given as “does not sustain metabolic cleavage” and the “Primate ICE (%)” value ([6]; 75 µmol/kg, as monosodium salt) is given as 28.7 ± 12.4%. For the same compound, the “Primate ICE (%)” value ([6]; 75 µmol/kg, in capsules) was ~ 26% and 26.3 ± 9.9%, the histopathology (rats [7]; extensive tissues) was “no drug-related abnormalities were identified” and the “urinary Kim-1 excretion” value (rats [7]; up to 28 d) was “did not elicit any increases”.
In the case of `C[C@]1(C(=O)O)CSC(c2ccc(OCCCCCCO)cc2O)=N1` [compound 11, (S)-4,5-dihydro-2-[2-hydroxy-4-(6-hydroxyhexyloxy)phenyl]-4-methyl-4-thiazolecarboxylic acid], the concentration in heart [4, 14] is reported as 26 nmol/g wet weight, the concentration in kidney ([4]; 0.5 h after 11 sc 300 µmol/kg) is reported as “trace amounts” and the presence in liver ([4]; rat liver, any of the time points (0.5-8 h) after 11 sc 300 µmol/kg) is reported as “not found”. For the same compound, the concentration in pancreas [4, 17] was under 5 nmol/g wet weight, the “share of the total (parent + metabolites)” value [4, 19] was “no longer detectable” and the “conversion of alcohol 11 to metabolites 12-14” value ([4]; rats, 11 sc 300 µmol/kg) was “Significant conversion; also recorded: quickly converted; also recorded: very quickly converted”. The “overt toxicity in rats” value ([8]; bile duct-cannulated rats) was “did not present with any overt toxicity; also recorded: did not display any overt toxicity; also recorded: did not elicit any signs of overt toxicity”, the survival (male Sprague-Dawley rats; rat, po by gavage once daily for ten days) was “survived” and the “histopathology (25 tissues/rat)” value (male Sprague-Dawley rats; rat, po once daily x 10 d) was “could not identify any drug-related abnormalities”. For the same compound, the overall toxicity (male Sprague-Dawley rats; rodents, once daily for 10 days) was “complete lack of toxicity”.
In the case of `C[C@]1(C(=O)O)CSC(c2ncccc2O)=N1` [compound 1, (S)-4,5-dihydro-2-(3-hydroxy-2-pyridinyl)-4-methyl-4-thiazolecarboxylic acid], the “Rodent ICE (%)” value ([1]; rat, po, 150 µmol/kg) is given as 5.5 ± 3.2%, the “Primate ICE (%)” value ([6]; 150 µmol/kg, historical, ref 41 (1), ref 53 (2)) is given as 16.1 ± 8.5% and the cumulative formation constant [9] is given as 4 × 10^29. The “renal toxicity in rats” value (rats [10]) was “unacceptable renal toxicity”.
In the case of `COCCCCCCOc1ccc(C2=N[C@@](C)(C(=O)O)CS2)c(O)c1` [compound 10, (S)-4,5-dihydro-2-[2-hydroxy-4-(6-methoxyhexyloxy)phenyl]-4-methyl-4-thiazolecarboxylic acid], the “overt toxicity in rats” value ([8]; bile duct-cannulated rats) is reported as “profoundly toxic; also recorded: very toxic”, the “time of death of one of the animals post drug” value ([8]; bile duct-cannulated rats, remaining rodents euthanized at 24 h) is reported as ~ 22 h and the “time of peak drug-induced iron excretion post drug” value ([8]; rat) is reported as 6 h.
